Results as given in patent US10947546B2, “Methods and compositions for translational profiling and molecular phenotyping” (The Rockefeller University, priority 2008, dated 2021).

Assays:
[1] = test system: BAC D2 striatopallidal medium spiny neurons; experiment: 2PLSM dendritic Ca2+ imaging on focal S1P application (functional Gpr6 receptors), BAC D2 neurons in brain slices; format: cell-based, mouse; settings: for Percent increase in fluorescence (ΔG/R), median: S1P puff 10 μM
Description: Gpr6 encodes a G protein-coupled receptor for the lysophospholipid sphingosine 1-phosphate (S1P) (A. Ignatov, J. Lintzel, H. J. Kreienkamp, H. C. Schaller, Biochem Biophys Res Commun 311, 329-36 (Nov. 14, 2003)). In heterologous expression systems, S1P activation of Gpr6 receptors induces the release of Ca2+ from intracellular stores. […] To determine whether functional Gpr6 receptors were selectively expressed in striatopallidal neurons, BAC D2 striatopallidal or BAC D1 striatonigral medium spiny neurons (expressing soluble eGFP) were identified in brain slices and patch clamped (FIG. 30) (M. Day et al., Nat Neurosci 9, 251-9 (February, 2006)). Neurons were loaded with Alexa 594 (50 μM) to allow dendrites to be seen and with Fluo-4 (200 μM) to monitor intracellular Ca2+ concentration using 2-photon laser scanning microscopy (2PLSM). After allowing the dyes to equilibrate, neurons were imaged and a second pipette containing S1P (10 μM) was brought into close physical proximity to a dendrite, 60-80 microns from the soma (a and b). […] Nairn, P. Greengard, J Neurochem 72, 2015-21 (May, 1999)) and/or inhibition of adenylyl cyclase type 5 (AC5; Adcy5) (C.
Striatonigral (BAC D1) or striatopallidal (BAC D2) neurons expressing soluble eGFP (S. Falcon, R. Person, Bioinformatics 23, 257-8 (2007)) in 275 μm thick corticostriatal slices were identified by somatic eGFP fluorescence. eGFP 2PLSM green signals (500-550 nm) were acquired from eGFP+ BAC Drd2 neurons using 810 nm excitation, while eGFP+ BAC Drd1 neurons required 900 nm excitation. eGFP+ MSNs were then patched using infrared-differential interference contrast (IR-DIC) video microscopy with a Hamamatsu C2400 Newvicon camera/controller system (Hamamatsu, Japan) and a 60X/0.9NA water-dipping lens. […] The pipette solution contained the following (in mM): 135 KMeSO4 (ICN Biomedicals Inc., Aurora, Ohio), 5 KCl, 10 HEPES, 2 MgATP, 0.2 Na2GTP, and 0.1 spermine, pH=7.25-7.3 with KOH, 270 mOsm/l. As measured in the bath, the pipette resistance was ˜4 MΩ. Seals were formed in voltage-clamp mode on the cell somas with series resistance >1 GΩ. After seal rupture in whole-cell configuration the series-resistance decreased to 10-15 MΩ. […] The thapsigargin was initially dissolved in DMSO at a concentration of 10 mM. This stock was then diluted 1000× in the internal recording solution. Following break in, the internal solution was allowed to approach diffusional equilibrium for at least 15 min prior to imaging. The cells were voltage clamped at −70 mV and monitored for somatic depolarization.
For the duration of the recordings, 2PLSM green and red signals (570-620 nm) were acquired using 810 nm excitation with 90 MHz pulse repetition frequency and ˜250 fs pulse duration at the sample plane.

[2] = test system: DARPP-32; experiment: Threonine 34 DARPP-32 phosphorylation after S1P treatment of striatal slices; format: cell-based; settings: 5 minutes after S1P addition, 1.04±0.17 at 0 minutes, n=12
[3] = test system: BAC D1 striatonigral medium spiny neurons; experiment: 2PLSM dendritic Ca2+ imaging on focal S1P application, BAC D1 neurons in brain slices; format: cell-based, mouse; settings: S1P puff 10 μM, n=4
Description: Gpr6 encodes a G protein-coupled receptor for the lysophospholipid sphingosine 1-phosphate (S1P) (A. Ignatov, J. Lintzel, H. J. Kreienkamp, H. C. Schaller, Biochem Biophys Res Commun 311, 329-36 (Nov. 14, 2003)). In heterologous expression systems, S1P activation of Gpr6 receptors induces the release of Ca2+ from intracellular stores. […] To determine whether functional Gpr6 receptors were selectively expressed in striatopallidal neurons, BAC D2 striatopallidal or BAC D1 striatonigral medium spiny neurons (expressing soluble eGFP) were identified in brain slices and patch clamped (FIG. 30) (M. Day et al., Nat Neurosci 9, 251-9 (February, 2006)). […]
Striatonigral (BAC D1) or striatopallidal (BAC D2) neurons expressing soluble eGFP (S. Falcon, R. Person, Bioinformatics 23, 257-8 (2007)) in 275 μm thick corticostriatal slices were identified by somatic eGFP fluorescence. eGFP 2PLSM green signals (500-550 nm) were acquired from eGFP+ BAC Drd2 neurons using 810 nm excitation, while eGFP+ BAC Drd1 neurons required 900 nm excitation. eGFP+ MSNs were then patched using infrared-differential interference contrast (IR-DIC) video microscopy with a Hamamatsu C2400 Newvicon camera/controller system (Hamamatsu, Japan) and a 60X/0.9NA water-dipping lens. […] As measured in the bath, the pipette resistance was ˜4 MΩ. […] The cells were voltage clamped at −70 mV and monitored for somatic depolarization. […]

[4] = test system: GABAA receptor mIPSCs in BAC D2 striatopallidal neurons; experiment: Whole-cell voltage-clamp GABAergic mIPSC recording after 15-day cocaine treatment, BAC D2 neurons; format: in vivo, mouse; settings: cocaine 15 days
[5] = test system: GABAA receptor mIPSCs in BAC D1 striatonigral neurons; experiment: Whole-cell voltage-clamp GABAergic mIPSC recording after 15-day cocaine treatment, BAC D1 neurons
[6] = test system: Ferritin heavy chain mRNA (Fth1); settings: 100 μg/ml ferric ammonium citrate, 36 hours, HEK293T
Procedure: Rapid immunoaffinity purification of polysomes was achieved from HEK293T cells transiently transfected with the eGFP-L10a transgene but not mock transfected cells. HEK293T cells transfected with eGFP-L10a were homogenized in lysis buffer. The solubilized and clarified lysate was loaded onto a linear density (20-50% w/w) gradient of sucrose and centrifuged for 2 hours at 4° C. using a Beckman SW41 rotor at 40,000 r. p. m. (200,000×g). 750 μl fractions were collected as absorbance at 254 nm was monitored with an ISCO UA-6 UV detector.
HEK293T cells were transiently transfected (˜30% efficiency) with eGFP (mock) or eGFP-L10a constructs and grown in medium alone (no treatment, NT) or in medium supplemented with 100 μg/ml ferric ammonium citrate [pH 7.0] (iron) for 36 hours. […] (b) The post-mitochondrial supernatants of untreated or iron-treated cells were loaded onto linear sucrose gradients (20-50% w/w). After velocity sedimentation, fractions (direction of sedimentation noted by arrow) were collected while UV absorbance (254 nm) was being measured. […] Non-polysome and polysome gradient fractions were generated as indicated. To avoid Ferritin mRNAs associated with mRNPs, only heavier polysomes (with greater than 4 ribosomes) were included in the polysome fraction. […] (e) To determine if the translating ribosome affinity purification (TRAP) methodology could faithfully reflect the changes observed in c, a direct eGFP immunoprecipitation of post-mitochondrial supernatants (whole cell lysates, unfractionated) was performed.
In some experiments, 20 ng of purified RNA was used to produce cDNA with a NuGEN WT Ovation kit (NuGEN Technologies, San Carlos, Calif.) and the resulting cDNA was purified and quantified. 10 ng of cDNA was used for each real-time gene expression assay. Applied Biosystems (Foster City, Calif.) TaqMan pre-designed gene expression assays were used, following the manufacturer's instructions and using an Applied Biosystems 7900 Sequence Detection System.
Table 10). To provide an initial test of the data, quantitative PCR studies were carried out using independent biological BACarray D1 and D2 samples and a different cDNA amplification procedure (A. Alexa, J. Rahnenfuhrer, T. Lengauer, Bioinformatics 22, 1600-7 (2006)).

[7] = iron treatment, range from replicates

CCCCCCCCCCCCC/C=C/[C@@H](O)[C@@H](N)COP(=O)(O)O [S1P, sphingosine 1-phosphate]
Percent increase in fluorescence (ΔG/R), median ([1]; BAC D2 medium spiny neurons, n=6): 146% | Percent increase in fluorescence (ΔG/R), median ([1]; thapsigargin loaded BAC D2 medium spiny neurons, n=4): 4% | dendritic Ca2+ levels ([1]; focal application of S1P 10 μM, clamped at −70 mV, BAC D2): consistently and reversibly increased | threonine 34 DARPP-32 phosphorylation [2]: 0.58 normalized units | Percent increase in fluorescence (ΔG/R), median [3]: 17%

COC(=O)[C@H]1[C@@H](OC(=O)c2ccccc2)C[C@@H]2CC[C@H]1N2C [cocaine]
mean 10-90% rise times of mIPSCs ([4]; saline 0.65±0.007): 0.64±0.010 | mean mIPSC frequency ([4]; saline 0.72±0.05 Hz): 0.78±0.07 Hz | mean number of channels per synapse (N) ([4]; saline 33.8±2.7): 33.0±1.6 | number of small amplitude mIPSCs (<75 pA) in equal length records (7 min) ([4]; saline 68.1±9.7): 71.7±7.5 | number of receptors per synapse (N), representative variance-mean current plot ([4]; saline N=29): 31 | unitary receptor conductance (g), representative variance-mean current plot ([4]; saline g=33 pS): 29 pS | mIPSC frequency, median ([5]; cocaine 20 mg/kg/day 15 days, saline median 0.82 Hz): 1.03 Hz | mean 10-90% rise times of mIPSCs ([5]; cocaine 15 days, saline 0.64±0.008): 0.65±0.006 | mean number of channels per synapse (N) ([5]; cocaine 15 days, saline 33.1±1.4): 29.3±1.0 | number of small amplitude mIPSCs (<75 pA) in equal length records (7 min) ([5]; cocaine 15 days, saline 79.4±8.2): 104.2±6.3 | GABAA receptors (N) per synapse, representative variance-mean current plot ([5]; cocaine 15 days, saline N=33): 27 | unitary receptor conductance (g), representative variance-mean current plot ([5]; cocaine 15 days, saline g=31 pS): 30 pS

C/C=C(/C)C(=O)O[C@H]1C(C)=C2[C@H]([C@@H]1OC(=O)CCCCCCC)[C@@](C)(OC(C)=O)C[C@H](OC(=O)CCC)[C@@]1(O)[C@H]2OC(=O)[C@@]1(C)O [thapsigargin]
response to S1P in BAC D2 striatopallidal neurons ([1]; thapsigargin 10 μM in pipette, depletion of intracellular Ca2+ stores): abolished

ferric ammonium citrate [iron]
iron-induced fold-change in Fth1 mRNA levels relative to Actb mRNA, polysome IP samples ([6]; IP from polysomes): 2.01-2.43 | iron-induced fold-change in Fth1 mRNA levels relative to Actb mRNA, direct IP samples ([6]; IP from whole cell lysates): 1.80-1.93 | range of fold-change of Fth1 mRNA in non-polysome fraction [6, 7]: 0.16-0.22 | range of fold-change of Fth1 mRNA in polysome fraction [6, 7]: 1.83-2.15
